Data taken from ChEMBL document CHEMBL1201862, “PubChem BioAssay data set” (2004).
Structures can show the parent of a compound that is named as a salt.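 Step 1: Grow cells in 96-well plates. Step 2: Expose to compound for 48 hours at 5 concentrations. Step 3: Interpolate endpoints linearly; if unreached, use highest concentration. GI50 = concentration required for 50% inhibition of growth.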 The source made the active and inactive calls. No stated cut-off is given here; in the data, active = GI50 up to about 1.1 µM and inactive = higher. Starred links: 1 amine or outer side, 2 acyl side, 3 side chain; linkers in the order of their positions; H or OH if unused. Residues, ends and D or L forms follow the SMILES beside them. *: point of attachment. γGlu = O=C(O)[CH](CCC(=O)[*:2])N[*:1]; NHOH = ON*

What was measured:
Experiment in all cases: NCI tumour cell line growth inhibition, 48 h
NCI-H522 = tested on: NCI-H522
SF-295 = tested on: SF-295
A549 = tested on: A549
UACC-257 = tested on: UACC-257
COLO 205 = tested on: COLO 205
MDA-MB-435 = tested on: MDA-MB-435
LOX IMVI = tested on: LOX IMVI
OVCAR-4 = tested on: OVCAR-4
SW-620 = tested on: SW-620
CAKI-1 = tested on: CAKI-1
DU-145 = tested on: DU-145
UACC-62 = tested on: UACC-62
NCI/ADR-RES = tested on: NCI/ADR-RES
HL-60 = tested on: HL-60
NCI-H460 = tested on: NCI-H460
SNB-19 = tested on: SNB-19
MCF7 = tested on: MCF7
SNB-75 = tested on: SNB-75
K562 = tested on: K562
SK-MEL-2 = tested on: SK-MEL-2

Measured: GI50

COC(=O)CC(c1cn(S(=O)(=O)c2ccc(C)cc2)c2ccccc12)C1C[C@@H](C(=O)OC)N(C(=O)OC(C)(C)C)C1=O (stereo not given in full)
inactive: NCI-H522 55.3 µM | SF-295 20.9 µM | A549 27 µM | UACC-257 > 100 µM | COLO 205 26.7 µM | MDA-MB-435 41 µM | LOX IMVI 20.8 µM | OVCAR-4 55.3 µM | SW-620 12.5 µM | CAKI-1 31.7 µM | DU-145 87.1 µM | UACC-62 55.6 µM | NCI/ADR-RES 4.89 µM | HL-60 > 100 µM | NCI-H460 26.6 µM | SNB-19 > 100 µM | MCF7 33.5 µM | SNB-75 64.1 µM | K562 54.1 µM | SK-MEL-2 44.3 µM

CCOC(=O)C(Cc1ccc(OC(=O)c2ccc(OC)cc2)cc1)NC(=O)C(F)(F)F (stereo not given)
inactive: NCI-H522 > 100 µM | SF-295 80.7 µM | A549 > 100 µM | UACC-257 > 100 µM | COLO 205 > 100 µM | MDA-MB-435 > 100 µM | LOX IMVI > 100 µM | OVCAR-4 87.7 µM | SW-620 > 100 µM | CAKI-1 > 100 µM | DU-145 > 100 µM | UACC-62 > 100 µM | NCI/ADR-RES > 100 µM | HL-60 > 100 µM | NCI-H460 > 100 µM | SNB-19 > 100 µM | MCF7 > 100 µM | SNB-75 20.7 µM | K562 > 100 µM | SK-MEL-2 > 100 µM

COc1ccc2cc(NC(=O)N/N=C\c3ccc([N+](=O)[O-])cc3)ccc2c1
inactive: NCI-H522 16 µM | SF-295 25.9 µM | A549 34.1 µM | UACC-257 42.2 µM | COLO 205 > 100 µM | MDA-MB-435 69 µM | LOX IMVI > 100 µM | OVCAR-4 1.91 µM | SW-620 > 100 µM | CAKI-1 43.6 µM | DU-145 > 100 µM | UACC-62 20.9 µM | NCI/ADR-RES 23.8 µM | HL-60 45 µM | NCI-H460 29.4 µM | SNB-19 20.4 µM | MCF7 29.9 µM | SNB-75 21.3 µM | K562 80.4 µM | SK-MEL-2 60.3 µM

CCOC(=O)NC(=O)c1cn(CCCOC(=O)CCCCCCCCC(=O)OCCCn2cc(C(=O)NC(=O)OCC)c(=O)n(C)c2=O)c(=O)n(C)c1=O
inactive: NCI-H522 > 100 µM | SF-295 > 100 µM | A549 > 100 µM | UACC-257 > 100 µM | COLO 205 > 100 µM | MDA-MB-435 > 100 µM | LOX IMVI > 100 µM | OVCAR-4 > 100 µM | SW-620 > 92 µM | CAKI-1 > 69 µM | DU-145 > 100 µM | UACC-62 > 100 µM | NCI/ADR-RES > 100 µM | HL-60 > 77.8 µM | NCI-H460 > 100 µM | SNB-19 67 µM | MCF7 > 100 µM | SNB-75 > 48.2 µM | K562 > 100 µM | SK-MEL-2 97.1 µM

O=C1OCC2OC(=O)c3cc(O)c(O)c(O)c3-c3c(O)c(O)c(O)c4c3C(=O)OC(C2OC(=O)c2cc(O)c(O)c(O)c2-c2c1cc(O)c(O)c2O)C1OC(=O)C2C4=C(O)C(=O)C23Oc2cc(O)c4c(c2[C@H]13)O[C@H](c1ccc(O)c(O)c1)[C@@H](O)C4 (stereo not given in full)
inactive: NCI-H522 17.4 µM | SF-295 19.8 µM | A549 19.1 µM | UACC-257 29 µM | COLO 205 19.2 µM | MDA-MB-435 18.5 µM | LOX IMVI 14.8 µM | OVCAR-4 15.7 µM | SW-620 20.6 µM | CAKI-1 16.2 µM | DU-145 30.9 µM | UACC-62 20.4 µM | NCI/ADR-RES 23.3 µM | HL-60 18.5 µM | NCI-H460 20.5 µM | SNB-19 41.4 µM | MCF7 23.1 µM | SNB-75 28.4 µM | K562 26 µM | SK-MEL-2 20.2 µM

COc1ccc(Cc2nccc3cc(OC)c(OC)cc23)cc1OC [PAPAVERINE HYDROCHLORIDE]
inactive: NCI-H522 > 100 µM | SF-295 84.9 µM | A549 > 100 µM | UACC-257 > 100 µM | COLO 205 > 100 µM | MDA-MB-435 > 100 µM | LOX IMVI 60.8 µM | OVCAR-4 > 100 µM | SW-620 > 100 µM | CAKI-1 47.3 µM | DU-145 > 100 µM | UACC-62 > 100 µM | NCI/ADR-RES 26.7 µM | HL-60 45 µM | NCI-H460 19 µM | SNB-19 70.1 µM | MCF7 > 100 µM | SNB-75 > 100 µM | K562 37.3 µM | SK-MEL-2 > 100 µM

CCN(/C=C1/C(=O)C(c2ccccc2)N(c2ccccc2)C1=O)CC (stereo not given)
inactive: NCI-H522 > 10 µM | SF-295 > 10 µM | A549 > 10 µM | UACC-257 > 10 µM | COLO 205 > 10 µM | MDA-MB-435 > 10 µM | LOX IMVI > 10 µM | OVCAR-4 > 10 µM | SW-620 > 10 µM | CAKI-1 > 10 µM | DU-145 > 10 µM | UACC-62 > 10 µM | NCI/ADR-RES > 10 µM | HL-60 > 10 µM | NCI-H460 > 10 µM | SNB-19 > 10 µM | MCF7 > 10 µM | SNB-75 6.44 µM | K562 > 10 µM | SK-MEL-2 > 10 µM

Nc1cc(C2CCCc3c2[nH]c2ccccc32)ccc1O (stereo not given)
inactive: NCI-H522 20.1 µM | SF-295 14.4 µM | A549 24.6 µM | UACC-257 42.4 µM | COLO 205 45.4 µM | MDA-MB-435 12.3 µM | LOX IMVI 16.4 µM | OVCAR-4 16.9 µM | SW-620 23.6 µM | CAKI-1 25.2 µM | DU-145 26 µM | UACC-62 10.8 µM | NCI/ADR-RES 22 µM | HL-60 14.2 µM | NCI-H460 > 100 µM | SNB-19 > 100 µM | MCF7 24.8 µM | SNB-75 52 µM | K562 6.56 µM | SK-MEL-2 31.9 µM

CCOC(=O)CNC(=O)C(CCC(=O)NO)NC(=O)CCC(N)C(=O)O (stereo not given) (γGlu-Glu(NHOH)-Gly-OEt; configuration not given here)
inactive: NCI-H522 > 100 µM | SF-295 > 100 µM | A549 > 100 µM | UACC-257 > 100 µM | COLO 205 > 100 µM | MDA-MB-435 > 100 µM | LOX IMVI > 100 µM | OVCAR-4 > 100 µM | SW-620 > 100 µM | CAKI-1 > 100 µM | DU-145 > 100 µM | UACC-62 > 100 µM | NCI/ADR-RES > 100 µM | HL-60 > 100 µM | NCI-H460 > 100 µM | SNB-19 > 100 µM | MCF7 > 100 µM | SNB-75 > 100 µM | K562 > 100 µM | SK-MEL-2 > 100 µM

CCc1nc(N)nc(N)c1-c1ccc2c(c1)nnn2CCc1ccccc1
inactive: NCI-H522 5.98 µM | SF-295 8.3 µM | A549 3.09 µM | UACC-257 22.2 µM | COLO 205 14.9 µM | MDA-MB-435 6.52 µM | LOX IMVI 5.16 µM | OVCAR-4 20.8 µM | SW-620 4.92 µM | CAKI-1 11.2 µM | DU-145 23.9 µM | UACC-62 7.01 µM | NCI/ADR-RES 13.7 µM | HL-60 3.02 µM | NCI-H460 2.32 µM | SNB-19 23.9 µM | MCF7 21.1 µM | SNB-75 15.8 µM | K562 1.55 µM | SK-MEL-2 28.2 µM

CC(=O)Nc1nc(Cl)cc(NCC2(CO)CCC2)n1
inactive: NCI-H522 > 100 µM | SF-295 > 100 µM | A549 > 100 µM | UACC-257 > 100 µM | COLO 205 > 100 µM | MDA-MB-435 > 100 µM | LOX IMVI > 100 µM | OVCAR-4 > 100 µM | SW-620 > 100 µM | CAKI-1 > 100 µM | DU-145 > 100 µM | UACC-62 > 100 µM | NCI/ADR-RES > 100 µM | HL-60 > 100 µM | NCI-H460 > 100 µM | SNB-19 > 100 µM | MCF7 > 100 µM | SNB-75 > 100 µM | K562 > 100 µM | SK-MEL-2 > 100 µM

COc1ccc(OC)c2sc(N3C(=O)/C(=C/c4cccc(Oc5ccccc5)c4)N=C3c3ccccc3)nc12
inactive: NCI-H522 53.7 µM | SF-295 > 100 µM | A549 > 100 µM | UACC-257 71.3 µM | COLO 205 51.8 µM | MDA-MB-435 29.3 µM | LOX IMVI 65.3 µM | OVCAR-4 > 100 µM | SW-620 51.1 µM | CAKI-1 > 100 µM | DU-145 > 100 µM | UACC-62 > 100 µM | NCI/ADR-RES > 100 µM | HL-60 38 µM | NCI-H460 > 100 µM | SNB-19 > 100 µM | MCF7 35.2 µM | SNB-75 > 100 µM | K562 32.1 µM | SK-MEL-2 > 100 µM

O=C1N/C(=N/N=C/C(O)C(O)C(O)C(O)CO)N/C1=C\c1c[nH]c2ccccc12 (stereo not given)
inactive: NCI-H522 54.1 µM | SF-295 > 100 µM | A549 > 100 µM | UACC-257 > 100 µM | COLO 205 > 100 µM | MDA-MB-435 > 100 µM | LOX IMVI > 100 µM | OVCAR-4 > 100 µM | SW-620 > 100 µM | CAKI-1 > 100 µM | DU-145 > 100 µM | UACC-62 > 100 µM | NCI/ADR-RES > 100 µM | HL-60 48.4 µM | NCI-H460 > 100 µM | SNB-19 38.4 µM | MCF7 > 100 µM | SNB-75 > 100 µM | K562 83.9 µM | SK-MEL-2 28.3 µM
